Experimental data published in PMC8148385, “A robust photoluminescence screening assay identifies uracil-DNA glycosylase inhibitors against prostate cancer” (Chemical Science, 2020).
Like-named read-outs stand apart in the source and are kept apart here.

Legend:
[1] = target: T1, uracil-DNA glycosylase (UDG) (Escherichia coli, UniProt P12295); assay: TRES G-quadruplex/iridium probe UDG activity assay with commercial UDG; also fluorescence thermal shift (ca. […] °C); assay type: biochemical
T1 construct: gene ung

[2] = target: T2, uracil-DNA glycosylase (UDG) (Mus musculus, UniProt P97931); assay: CETSA in RM-1 cell lysates; assay type: cell-based
T2 construct: gene Ung; endogenous UDG in RM-1 cell lysates

[3] = target: T1, uracil-DNA glycosylase (UDG); assay: TRES G-quadruplex/iridium probe UDG activity assay with commercial UDG; also fluorescence thermal shift (ca. […] °C); assay type: biochemical; remark: listed apart in the source

T1 sequence (P12295 2-229): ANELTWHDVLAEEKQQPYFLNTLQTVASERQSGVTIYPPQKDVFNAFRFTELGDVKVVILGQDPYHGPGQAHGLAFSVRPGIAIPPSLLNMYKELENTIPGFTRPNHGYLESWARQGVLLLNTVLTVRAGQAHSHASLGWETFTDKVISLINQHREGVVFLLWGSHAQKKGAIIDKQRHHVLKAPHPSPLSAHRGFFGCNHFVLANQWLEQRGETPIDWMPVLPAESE
T2 sequence (P97931 whole entry): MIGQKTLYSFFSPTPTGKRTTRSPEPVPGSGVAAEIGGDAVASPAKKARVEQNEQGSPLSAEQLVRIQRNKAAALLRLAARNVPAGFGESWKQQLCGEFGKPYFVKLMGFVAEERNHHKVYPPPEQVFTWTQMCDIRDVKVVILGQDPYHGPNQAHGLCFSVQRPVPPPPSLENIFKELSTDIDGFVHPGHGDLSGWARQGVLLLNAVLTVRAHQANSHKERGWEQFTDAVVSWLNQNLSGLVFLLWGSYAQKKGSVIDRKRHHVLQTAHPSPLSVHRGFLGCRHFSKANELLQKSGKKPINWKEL

Structure (SMILES)	IC50 [1] [µM]	CETSA in RM-1 cell lysates [2]	IC50 [3] [µM]
O=C(N/N=C/c1ccc([N+](=O)[O-])o1)c1ccc(O)cc1 [S13, nifuroxazide]	~4	in the presence of compound A8 and S13, indicating that both of them directly engaged and stabilized UDG	–
O=[N+]([O-])c1ccc(S(=O)(=O)N2/C(=C\c3ccccc3)C(O)(c3ccccc3)c3ccccc32)cc1 (stereo not drawn) [A8]	–	–	1.9
